Laboratory results from ChEMBL document CHEMBL1201862, “PubChem BioAssay data set” (2004).
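Each compound was tested at five concentrations against cells in 96-well plates for 48 hours. Abbreviation: GI50, concentration required for 50% inhibition of growth.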 Active and inactive are the calls of the source. No stated cut-off is given here; in the data, active = GI50 up to about 1.1 µM and inactive = higher. Where a SMILES comes first, the peptide text is derived from it.

What was measured:
Test in all cases: NCI anticancer screen, dose series, 48 h
[1] = system: BT-549
[2] = system: T47D
[3] = system: DMS-114
[4] = system: DMS-273
[5] = system: HOP-18
[6] = system: LXFL 529
[7] = system: SNB-78

Compound	GI50 [1]	GI50 [2]	also measured
NNc1nncc2[nH]cnc12	> 100 µM (inactive)	> 100 µM (inactive)	
C/C(=N/NC(=S)Nc1cccc(C)c1)c1ccccn1	3.87 µM (inactive)		
O=C1NC(=O)C23C(=O)NC(=O)C12C1C=CC3CC1 (configuration not stated)		> 10 µM (inactive)	
COc1ccc(/C(=N/N=c2\[nH]c3ccccc3n2Cc2ccccc2)C(=O)O)cc1	25.1 µM (inactive)	14.7 µM (inactive)	
Cc1ccc(NC(=O)CC(=O)N2N=C(N(CCC#N)c3cccc(C)c3)CC2c2ccccc2)cc1 (configuration not stated)			GI50 [3]: > 100 µM (inactive); GI50 [4]: > 100 µM (inactive); GI50 [5]: > 100 µM (inactive); GI50 [6]: > 100 µM (inactive); GI50 [7]: > 100 µM (inactive)
Cc1cnc2c(c1)C(=O)C1=C(C2=O)C2OC(=O)CC2OC1(C)C (configuration not stated)	0.185 µM (active)	0.304 µM (active)	
COc1cc(/C=C2\CCc3cc(OC)c(OC)cc3C2=O)cc(OC)c1	10.4 µM (inactive)	5.9 µM (inactive)	
O=C1NC(NNc2ccccc2)=N/C1=C\c1ccco1	21.2 µM (inactive)	14 µM (inactive)	
Cc1c(Br)c(Br)c(C)[s+]1[O-]	16.3 µM (inactive)	34.9 µM (inactive)	
O=C(NCCc1ccccc1)c1cc(/C=C/c2cc(O)ccc2O)ccc1O	1.78 µM (inactive)	1.92 µM (inactive)	
CC1(C)COC(c2cccc(C(O)c3ccc(Cl)cc3)c2)=N1 (configuration not stated)		36.3 µM (inactive)	
C[C@@H]1CC[C@@H]2[C@@H](C1)O[C@@H]([C@H](C)OCc1ccccc1)SC2(C)C	39.4 µM (inactive)	15.7 µM (inactive)	
C=C1C(=O)O[C@H]2[C@@H](O)[C@H](C)CCC/C(C)=C/CC[C@@]3(C)O[C@@H]3C[C@@H]12	3.3 µM (inactive)	3.4 µM (inactive)	
Fc1ccccc1-c1cc(S)c2cc3c(cc2n1)OCO3	61 µM (inactive)	28.1 µM (inactive)	
O=c1oc2ccccc2cc1-c1nc2ccccc2s1	17.2 µM (inactive)	10.7 µM (inactive)	
CCCCNC(=S)N/N=C/c1cccc(C)n1	49.4 µM (inactive)	26 µM (inactive)	
CN(Cc1ccccc1)C(=S)S [SODIUM BENZYL(METHYL)CARBAMODITHIOATE]	77.4 µM (inactive)	78.7 µM (inactive)	
O=C1NC(=S)NC(=O)C1C(c1ccc(O)cc1)C1C(=O)NC(=S)NC1=O.c1ccncc1	> 100 µM (inactive)	> 100 µM (inactive)	
COc1ccc(NC(=O)C(=O)Cc2nc3ccc(C(=O)c4ccccc4)cc3nc2O)c([N+](=O)[O-])c1	26.9 µM (inactive)	17.2 µM (inactive)	
C[C@]12CC[C@H](O)CC1=CC[C@@H]1C2CC[C@]2(C)c3n[nH]nc3CC12 (some centres not stated)	> 100 µM (inactive)	> 100 µM (inactive)	
CC(=N\N=C\c1ccccn1)/C(C)=N/N=C(C)/C(C)=N/N=C/c1ccccn1	> 100 µM (inactive)	> 100 µM (inactive)	
CCOC(=O)C1C(c2ccc3c(c2)OCO3)c2c(n[nH]c2O)CC1(C)O (configuration not stated)		> 100 µM (inactive)	
COC(=O)c1c([N+](=O)[O-])ncn1[C@H]1OC[C@@H](OC(C)=O)[C@@H](OC(C)=O)[C@@H]1OC(C)=O	> 100 µM (inactive)	> 100 µM (inactive)	
CC(=O)O[C@H]1CC(C)(C)C(=C=C/C(C)=C/C=C/C=C/C=C(C)/C=C2C=C(/C=C/[C@@]34O[C@]3(C)C[C@@H](O)CC4(C)C)C(=O)O/2)[C@](C)(O)C1	2.51 µM (inactive)	4.27 µM (inactive)	
S=C(N/N=C(/c1ccccc1)c1ccccn1)Nc1ccc(Cl)cc1	3.15 µM (inactive)		
CC1(C)N=C2C(=O)c3c([nH]c4ccccc34)[C@]3(C)CCC1CC23 (some centres not stated)	> 6.25 µM (inactive)		

Compound	GI50 [1]	GI50 [2]	also measured
CN(C)C(=S)/N=c1\ssc(=S)n1Cc1cccs1	11 µM (inactive)	8.51 µM (inactive)	GI50 [3]: 2.15 µM (inactive); GI50 [5]: 8.89 µM (inactive); GI50 [6]: 4.75 µM (inactive); GI50 [7]: 6.68 µM (inactive)
CC(=O)NC(CS)C(=O)NC(CO)C(=O)NC(CO)C(=O)NC(Cc1c[nH]c2ccccc12)C(=O)N1CCCC1C(=O)NC(CO)C(=O)NC(Cc1c[nH]c2ccccc12)C(=O)NC(Cc1c[nH]cn1)C(=O)NC(CO)C(=O)NC(Cc1c[nH]c2ccccc12)C(=O)NCC(=O)NCC(=O)NC(CC(=O)O)C(=O)NC(CCC(N)=O)C(=O)NC(CCCCN)C(=O)NC(Cc1ccccc1)C(=O)NC(CCCNC(=N)N)C(=O)NC(CCCCN)C(N)=O (configuration not stated) (Ac-CSSWPSWHSWGGDQKFRK-NH2; configuration not given here)	> 25 µM (inactive)	> 25 µM (inactive)	
COc1ccc2c(c1)CC[C@@H]1C2CC[C@]2(C)C(=O)N(C)C(=O)CC12 (some centres not stated)	> 100 µM (inactive)	> 100 µM (inactive)	
Cc1ccc(NC(=O)C(=O)C(C#N)c2nc(-c3ccc(-c4ccccc4)cc3)cs2)c(C)c1 (configuration not stated)			GI50 [3]: > 100 µM (inactive); GI50 [4]: 39.6 µM (inactive); GI50 [5]: > 100 µM (inactive); GI50 [6]: > 100 µM (inactive); GI50 [7]: > 100 µM (inactive)
O=C1c2ccccc2-c2c1c1ccccc1c(=O)n2Cc1ccccc1	62.7 µM (inactive)	> 100 µM (inactive)	
COC(=O)c1cc(O)c(O)c(O)c1-c1c(O)c(O)c(O)c(SC[C@H](NC(=O)OCc2ccccc2)C(=O)OCc2ccccc2)c1C(=O)OC	34.7 µM (inactive)	32.4 µM (inactive)	
COc1ccc(C2(O)c3ccccc3C(=O)N(C)C2(O)c2ccc(OC)cc2)cc1 (configuration not stated)	34.3 µM (inactive)	52.4 µM (inactive)	
Cn1c2ccccc2c2c3c(=O)[nH][nH]c(=O)c3c3c4ccccc4n(C)c3c21	> 100 µM (inactive)	0.284 µM (active)	
CCOc1ccc2nc(NC(=O)C(=O)C(c3cnc4ccccc4n3)[N+](=O)[O-])sc2c1 (configuration not stated)	> 100 µM (inactive)	> 100 µM (inactive)	
Nc1ccccc1OCCCOc1ccccc1N	> 100 µM (inactive)	> 100 µM (inactive)	
Cc1ccc2ccccc2c1CC1S(=O)(=O)OCCOS1(=O)=O	11.2 µM (inactive)		
Cn1c(=O)c2c(nc3n(CC(O)CCl)c(=O)ccn23)n(C)c1=O (configuration not stated)	> 100 µM (inactive)	35.7 µM (inactive)	
COCCOCc1nc(C#N)c(N)o1		> 100 µM (inactive)	
CC(C)=CC1C(COC(=O)c2ccccc2Cl)C1(C)C (configuration not stated)	33.5 µM (inactive)	50.6 µM (inactive)	
Cc1cc2nc3[nH]c4c(Cl)cc(Cl)cc4c3nc2cc1C	98.4 µM (inactive)	> 100 µM (inactive)	
C=C(C)[C@@]1(O)CCC[C@H]1NC(=O)OC(C)(C)C	> 100 µM (inactive)	> 100 µM (inactive)	
CCOC(=O)N[C@@H]1C2CC(=O)C(O2)[C@@H]1OC (some centres not stated)			GI50 [5]: > 100 µM (inactive); GI50 [7]: > 100 µM (inactive)
COC(=O)[C@@](NC(=O)OCc1ccccc1)([C@H](C)O)C(F)(F)F	> 100 µM (inactive)	> 100 µM (inactive)	
O=C(CSc1nnc(SCC(=O)NN=C2CCCCC2)s1)NN=C1CCCCC1	> 100 µM (inactive)	> 100 µM (inactive)	
COc1cnc2cc(C(=O)O)c3ccccc3c2c1		> 100 µM (inactive)	
O=C([C@H](O)[C@@H](O)c1cccc(Cl)c1)C12CC3CC(CC(C3)C1)C2	1.87 µM (inactive)	2.16 µM (inactive)	
CS(=O)(=O)N1CC(CCl)c2ccc(NO)cc21 (configuration not stated)	12 µM (inactive)	21.9 µM (inactive)	
CC(C)(CCc1nc2ccccc2[nH]1)C(=O)O	> 100 µM (inactive)	> 100 µM (inactive)	
C=C(c1ccccc1)c1ccccc1-c1cc(-c2ccccc2)cc(-c2ccccc2)n1		9.08 µM (inactive)	
CC(=O)c1c(C)cn(S(=O)(=O)NC(=O)Nc2nncs2)c1C	> 100 µM (inactive)	> 100 µM (inactive)	
